Our source for the Activity values is ChEMBL document CHEMBL1146493, “Effect of phenolic glycosides on Agrobacterium tumefaciens virH gene induction and plant transformation” (J Nat Prod, 2004).

Activity calls are given as the source filed them. The rule behind the calls is not given here.

Series [1] deals with Nicotiana tabacum. As to the kind of experiment: Increase in genetic transformation in tobacco leaf explant co-cultured with Agrobacterium tumefaciens A348 assessed as buds formation at 100 uM after 4 weeks. Format: functional.
In series [2] the test system is Agrobacterium tumefaciens. Put plainly: Decrease in virH gene expression in Agrobacterium tumefaciens A348 overexpressing pSM219 virH::lacZ assessed as beta-galactosidase activity at >=250 uM after 18 hrs. It is filed as functional, organism-based.
Series [3] can be described thus: Toxicity in tobacco leaf explant co-cultured with Agrobacterium tumefaciens A348 assessed as detrimental genetic transformation at 500 uM after 4 weeks. The conditions noted are these: nicotiana tabacum, 672 h.
The subject of series [4] is Agrobacterium tumefaciens. Put plainly: Induction of virH gene expression in Agrobacterium tumefaciens A348 overexpressing pSM219 virH::lacZ assessed as beta-galactosidase activity at 100 uM after 18 hrs. Format: functional, organism-based.
A short description of series [5]: Toxicity in tobacco leaf explant co-cultured with Agrobacterium tumefaciens A348 assessed as mortality at 500 uM after 7 days. To be noted: nicotiana tabacum, 168 h.
Series [6] relates to Agrobacterium tumefaciens. As to the kind of experiment: Toxicity in Agrobacterium tumefaciens A348 overexpressing pSM219 virH::lacZ assessed as […] at 5 mM after 18 hrs. The conditions noted are these: in vivo, 5000 µM. Format: organism-based.
Series [7] deals with Nicotiana tabacum. Put plainly: Increase in transformation frequency of tobacco leaf explant co-cultured with Agrobacterium tumefaciens A348 assessed as transgenic callus formation at 100 uM after 21 days. Format: functional.
For series [8], the system named is Nicotiana tabacum. As to the kind of experiment: Increase in transformation frequency of tobacco leaf explant co-cultured with Agrobacterium tumefaciens A348 assessed as explant survival at 100 uM after 21 days. Format: functional.
Series [9] concerns Nicotiana tabacum. Put plainly: Increase in genetic transformation in tobacco leaf explant co-cultured with Agrobacterium tumefaciens A348 assessed as callus formation at 100 uM after 4 weeks. Format: functional.
Series [10] can be described thus: Toxicity in tobacco leaf explant co-cultured with Agrobacterium tumefaciens A348 assessed as mortality at 2 mM within 3 to 4 days. To be noted: nicotiana tabacum, 2000 µM.
For series [11], the system named is Agrobacterium tumefaciens. As to the kind of experiment: Inhibition of virH gene expression in Agrobacterium tumefaciens A348 overexpressing pSM219 virH::lacZ assessed as beta-galactosidase activity at 100 uM after 18 hrs. It is filed as functional, organism-based.
The subject of series [12] is Agrobacterium tumefaciens. As to the kind of experiment: Induction of virH gene expression in Agrobacterium tumefaciens A348 overexpressing pSM219 virH::lacZ assessed as beta-galactosidase activity at 0.5 mM after 18 hrs relative to acetosyringone. Format: functional.
The test system of series [13] is Agrobacterium tumefaciens. As to the kind of experiment: Induction of virH gene expression in Agrobacterium tumefaciens A348 overexpressing pSM219 virH::lacZ assessed as beta-galactosidase activity at 1 mM after 18 hrs relative to acetosyringone. It is filed as functional.
The test system of series [14] is Agrobacterium tumefaciens. As to the kind of experiment: Induction of virH gene expression in Agrobacterium tumefaciens A348 overexpressing pSM219 virH::lacZ assessed as beta-galactosidase activity at 10 mM after 18 hrs relative to acetosyringone. Format: functional, organism-based.

In the case of `COc1cc(C(C)=O)cc(OC)c1O` [ACETOSYRINGONE], the result (with Nicotiana tabacum [1]; in [2]; in series [4]; in the series on Nicotiana tabacum [7]; in the series on Nicotiana tabacum [8]; with Nicotiana tabacum [9]) was Active. The Activity entry in series [3], in series [5], in series [6] and in [10] was “Toxic” throughout.
`COc1cc(C(C)=O)ccc1O[C@@H]1OC[C@@H](O)[C@H](O)[C@H]1O`: the outcome in [11] was Active.
For `COc1cc(C(C)=O)cc(OC)c1O[C@H]1O[C@H](CO)[C@@H](O)[C@H](O)[C@H]1O`, the outcome (in the series on Nicotiana tabacum [1]; in series [11]; with Nicotiana tabacum [7]; with Nicotiana tabacum [8]; in the series on Nicotiana tabacum [9]) was Active. Also, the Activity in [12] worked out at 25%.
Regarding `CC(=O)c1ccc(O[C@@H]2OC[C@@H](O)[C@H](O)[C@H]2O)cc1`, the result in series [11] was Active.
For the compound `COc1cc(C(=O)/C=C/c2ccc(O)cc2)cc(OC)c1O`, the outcome with Nicotiana tabacum [1] and with Nicotiana tabacum [9] was Active.
`COc1cc(/C=C/C(C)=O)cc(OC)c1O[C@@H]1O[C@H](CO)[C@@H](O)[C@H](O)[C@H]1O`: the result (in the series with Nicotiana tabacum [1]; in series [11]; in the series on Nicotiana tabacum [9]) was Active.
`COc1cc(C(C)=O)cc(OC)c1O[C@@H]1OC[C@@H](O)[C@H](O)[C@H]1O`: the outcome (with Nicotiana tabacum [1]; in series [11]; in the series with Nicotiana tabacum [7]; with Nicotiana tabacum [8]; in the series with Nicotiana tabacum [9]) was Active. Moreover, the Activity in series [12] is reported as 25%; in series [13] it was 50%.
`COc1cc(C(C)=O)cc(OC)c1O[C@@H]1O[C@H](CO)[C@@H](O)[C@H](O)[C@H]1O` [GLUCOACETOSYRINGONE]: the result (in the series on Nicotiana tabacum [1]; in series [14]; in [11]; with Nicotiana tabacum [7]; with Nicotiana tabacum [8]; in the series with Nicotiana tabacum [9]) was Active. The Activity result in [3] and in series [10] was “Non-toxic” each time.
For the compound `COc1cc(C(=O)/C=C/c2ccc(O)cc2)cc(OC)c1O[C@@H]1O[C@H](CO)[C@@H](O)[C@H](O)[C@H]1O`, the outcome in the series on Nicotiana tabacum [1] and in the series with Nicotiana tabacum [9] was Active.
With `COc1cc(/C=C/C(C)=O)cc(OC)c1O`, the result (in the series on Nicotiana tabacum [1]; in series [4]; in the series on Nicotiana tabacum [9]) was Active.
